AC1.4 data for 29 molecules are collected here from patent US12441691B2 (Cytokinetics, Inc., priority 2020, dated 2025).

In the test the test system is rabbit skeletal myofibrils (fast skeletal myofibrils). Description: Activation of fast skeletal myofibrils (PUMA assay, AC1.4). In kind it is biochemical. Particulars: calcium at pCa25, AC1.4 = concentration at which the compound increased the enzymatic activity. As to the method: Preparation of fast skeletal myofibrils: Rabbit skeletal myofibrils were prepared based upon the method of Herrmann et al. (Biochem. 32(28):7255-7263(1993). Myofibrils were prepared from rabbit psoas muscle purchased from Pel-Freez Biologicals (Arkansas) within 2 days of ordering, stored on ice. Minced muscle was homogenized in 10 volumes of ice-cold “standard” buffer (50 mM Tris, pH 7.4, 0.1 M KOAc, 5 mM KCl, 2 mM dithiothreitol (DTT), 0.2 mM phenylmethylsulfonyl fluoride (PMSF), 10 μM leupeptin, 5 μM pepstatin, and 0.5 mM sodium azide) containing 5 mM ethylenediaminetetraacetic acid (EDTA) and 0.5% Triton X-100 using an Omni-Macro homogenizer. Myofibrils were recovered by low speed centrifugation (3000 rpm for 10 minutes) and washed 2 times in the Triton X-100 containing buffer to ensure removal of cellular membrane. Following the Triton washes, myofibrils were washed 3 times in “standard” buffer containing 2 mM magnesium acetate. A final wash in assay buffer (12 mM piperazine-1,4-bis(2-ethanesulfonic acid) (PIPES), pH 6.8, 60 mM KCl, 1 mM DTT) was performed and brought to 10% sucrose for flash freezing in liquid nitrogen and storage at −80° C.
Activation of Fast Skeletal Myofibrils: Fast fiber activators were identified by measuring the enzymatic activity of muscle myofibril preparations using the proprietary PUMA (trademark) (see, e.g., U.S. Pat. Nos. 6,410,254, 6,743,599, 7,202,051, and 7,378,254) assay system. Myofibril preparations consisted of rabbit skeletal muscle (approximately 90% fast fibers) that had been mechanically homogenized and washed with a detergent (Triton X-100) to remove cellular membranes. This preparation retained all of the sarcomeric components in a native conformation and the enzymatic activity was still regulated by calcium. Compounds were tested using a myofibril suspension and a level of calcium sufficient to increase enzymatic activity of the myofibrils to 25% of their maximal rate (termed pCa25). Enzymatic activity was tracked via a pyruvate kinase and lactate dehydrogenase-coupled enzyme system. This assay regenerates myosin-produced ADP into ATP by oxidizing NADH, producing an absorbance change at 340 nm. The buffering system was 12 mM PIPES, 2 mM MgCl2, 1 mM DTT at pH 6.8 (PM12 buffer). […] In Table 9, “Example Compound” refers to the compound labeled with the same number in Table 2.

The structures appear in SMILES notation.

On to `CC(C)[C@H]1C(=O)Nc2ccccc2CN1C(=O)c1cnn(C)c1` [Compound 41, (S)-3-Isopropyl-4-(1-methyl-1H-pyrazole-4-carbonyl)-1,3,4,5-tetrahydro-2H-benzo[e][1,4]diazepin-2-one], for which the AC1.4 was determined as 0.96 µM. To `CC[C@H](C)[C@H]1C(=O)Nc2cc(F)ccc2CN1C(=O)CO` [Compound 42, (S)-3-((S)-sec-butyl)-8-fluoro-4-(2-hydroxyacetyl)-1,3,4,5-tetrahydro-2H-benzo[e][1,4]diazepin-2-one] belongs 0.33 µM. To `CC[C@H](C)[C@H]1C(=O)Nc2cc(F)ccc2CN1C(=O)CCO` [Compound 43, (S)-3-((S)-sec-butyl)-8-fluoro-4-(3-hydroxypropanoyl)-1,3,4,5-tetrahydro-2H-benzo[e][1,4]diazepin-2-one] belongs 0.81 µM; to `CC[C@H](C)[C@H]1C(=O)Nc2c(F)cccc2CN1C(N)=O` [Compound 44, (S)-3-((S)-sec-butyl)-9-fluoro-2-oxo-1,2,3,5-tetrahydro-4H-benzo[e][1,4]diazepine-4-carboxamide], 0.26 µM; to `CC[C@H](C)[C@H]1C(=O)Nc2ccccc2CN1C(=O)c1cn[nH]c1` [Compound 45, (S)-3-((S)-sec-butyl)-4-(1H-pyrazole-4-carbonyl)-1,3,4,5-tetrahydro-2H-benzo[e][1,4]diazepin-2-one], 0.08 µM. For the molecule `CC[C@H](C)[C@H]1C(=O)Nc2ccccc2CN1C(=O)c1cnn(C)c1` [Compound 46, (S)-3-((S)-sec-butyl)-4-(1-methyl-1H-pyrazole-4-carbonyl)-1,3,4,5-tetrahydro-2H-benzo[e][1,4]diazepin-2-one], the AC1.4 is 0.13 µM. With `CC[C@H](C)[C@H]1C(=O)Nc2ccccc2CN1C(=O)c1cccc(=O)[nH]1` [Compound 47, (S)-3-((S)-sec-butyl)-4-(6-oxo-1,6-dihydropyridine-2-carbonyl)-1,3,4,5-tetrahydro-2H-benzo[e][1,4]diazepin-2-one], the AC1.4 worked out at 0.14 µM. As for `CC[C@H](C)[C@H]1C(=O)Nc2ccccc2CN1C(=O)c1cc[nH]c(=O)c1` [Compound 48, (S)-3-((S)-sec-butyl)-4-(2-oxo-1,2-dihydropyridine-4-carbonyl)-1,3,4,5-tetrahydro-2H-benzo[d][1,4]diazepin-2-one], the AC1.4 amounted to 0.06 µM. Consider `CC[C@H](C)[C@H]1C(=O)Nc2ccccc2CN1C(=O)c1cc(O)n[nH]1` [Compound 50, (S)-3-((S)-sec-butyl)-4-(3-hydroxy-1H-pyrazole-5-carbonyl)-1,3,4,5-tetrahydro-2H-benzo[e][1,4]diazepin-2-one], for which the AC1.4 is 0.17 µM. For the molecule `CC[C@H](C)[C@H]1C(=O)Nc2ccccc2CN1C(=O)C(C)(C)O` [Compound 51, (S)-3-((S)-sec-Butyl)-4-(2-hydroxy-2-methylpropanoyl)-1,3,4,5-tetrahydro-2H-benzo[e][1,4]diazepin-2-one], the AC1.4 came to 1.23 µM.

For the molecule `CC[C@H](C)[C@H]1C(=O)Nc2ccccc2CN1c1nc(N)cc(=O)[nH]1` [Compound 52, (S)-4-(4-Amino-6-oxo-1,6-dihydropyrimidin-2-yl)-3-((S)-sec-butyl)-1,3,4,5-tetrahydro-2H-benzo[e][1,4]diazepin-2-one], the AC1.4 was found to be 0.03 µM. To `CC[C@H](C)[C@H]1C(=O)Nc2ccccc2CN1c1nc(C)cc(=O)[nH]1` [Compound 53, (S)-3-((S)-sec-Butyl)-4-(4-methyl-6-oxo-1,6-dihydropyrimidin-2-yl)-1,3,4,5-tetrahydro-2H-benzo[e][1,4]diazepin-2-one] belongs 0.10 µM; to `CC[C@H](C)[C@H]1C(=O)Nc2ccccc2CN1c1cc(=O)[nH]cn1` [Compound 54, (S)-3-((S)-sec-butyl)-4-(6-oxo-1,6-dihydropyrimidin-4-yl)-1,3,4,5-tetrahydro-2H-benzo[e][1,4]diazepin-2-one], 0.09 µM.

On to `CC[C@H](C)[C@H]1C(=O)Nc2ccccc2CN1c1noc(C)n1` [Compound 55, (S)-3-((S)-sec-Butyl)-4-(5-methyl-1,2,4-oxadiazol-3-yl)-1,3,4,5-tetrahydro-2H-benzo[e][1,4]diazepin-2-one], for which the AC1.4 is 0.21 µM. As for `CC[C@H](C)[C@H]1C(=O)Nc2ccccc2CN1c1ncon1` [Compound 56, (S)-3-((S)-sec-Butyl)-4-(1,2,4-oxadiazol-3-yl)-1,3,4,5-tetrahydro-2H-benzo[e][1,4]diazepin-2-one], the AC1.4 came out at 0.08 µM.

On to `CC[C@H](C)[C@H]1C(=O)Nc2ccccc2CN1c1c(N)c(=O)c1=O` [Compound 57, 3-Amino-4-((S)-3-((S)-sec-butyl)-2-oxo-1,2,3,5-tetrahydro-4H-benzo[e][1,4]diazepin-4-yl)cyclobut-3-ene-1,2-dione], for which the AC1.4 stood at 0.03 µM. To `CC[C@H](C)[C@H]1C(=O)Nc2ccccc2CN1C(=O)N(C)C` [Compound 58, (S)-3-((S)-sec-butyl)-N,N-dimethyl-2-oxo-1,2,3,5-tetrahydro-4H-benzo[e][1,4]diazepine-4-carboxamide] belongs 0.13 µM; to `CC[C@H](C)[C@H]1C(=O)Nc2ccccc2CN1C(=O)N1CC(OC)C1` [Compound 59, (S)-3-((S)-sec-butyl)-4-(3-methoxyazetidine-1-carbonyl)-1,3,4,5-tetrahydro-2H-benzo[e][1,4]diazepin-2-one], 0.17 µM. To `CC[C@H](C)[C@H]1C(=O)Nc2ccccc2CN1c1ncc(N)c(OC)n1` [Compound 60, (S)-4-(5-Amino-4-methoxypyrimidin-2-yl)-3-((S)-sec-butyl)-1,3,4,5-tetrahydro-2H-benzo[e][1,4]diazepin-2-one] belongs 0.07 µM. As to `CC[C@H](C)[C@H]1C(=O)Nc2ccccc2CN1c1ncncn1` [Compound 61, (S)-3-((S)-sec-Butyl)-4-(1,3,5-triazin-2-yl)-1,3,4,5-tetrahydro-2H-benzo[e][1,4]diazepin-2-one], the AC1.4 worked out at 0.07 µM.

As for `CC[C@H](C)[C@H]1C(=O)Nc2ccccc2CN1CCO` [Compound 62, (S)-3-((S)-sec-Butyl)-4-(2-hydroxyethyl)-1,3,4,5-tetrahydro-2H-benzo[e][1,4]diazepin-2-one], the AC1.4 came to 2.25 µM. The figure for `CC[C@H](C)[C@H]1C(=O)Nc2ccccc2C(C)(C)N1C(N)=O` [Compound 63, (S)-3-((S)-sec-Butyl)-5,5-dimethyl-2-oxo-1,2,3,5-tetrahydro-4H-benzo[e][1,4]diazepine-4-carboxamide] is 0.10 µM. To `CC[C@H](C)[C@H]1C(=O)Nc2cccc(Cl)c2CN1C(=O)N1CC(O)C1` [Compound 66, (S)-3-((S)-sec-butyl)-6-chloro-4-(3-hydroxyazetidine-1-carbonyl)-1,3,4,5-tetrahydro-2H-benzo[e][1,4]diazepin-2-one] belongs 3.00 µM; to `CC[C@H](C)[C@H]1C(=O)Nc2cccc(Br)c2CN1C(N)=O` [Compound 67, (S)-6-bromo-3-((S)-sec-butyl)-2-oxo-1,2,3,5-tetrahydro-4H-benzo[e][1,4]diazepine-4-carboxamide], 2.15 µM. To `CC[C@H](C)[C@H]1C(=O)Nc2cccc(C3CC3)c2CN1C(N)=O` [Compound 68, (S)-3-((S)-sec-butyl)-6-cyclopropyl-2-oxo-1,2,3,5-tetrahydro-4H-benzo[e][1,4]diazepine-4-carboxamide] belongs 4.30 µM; to `CC[C@H](C)[C@H]1C(=O)Nc2ccc(F)cc2CN1C(C)=O` [Compound 69, (S)-4-acetyl-3-((S)-sec-butyl)-7-fluoro-1,3,4,5-tetrahydro-2H-benzo[e][1,4]diazepin-2-one], 0.72 µM. Regarding `CC[C@H](C)[C@H]1C(=O)Nc2ccc(F)cc2CN1C(=O)c1ccn[nH]1` [Compound 70, (S)-3-((S)-sec-butyl)-7-fluoro-4-(1H-pyrazole-5-carbonyl)-1,3,4,5-tetrahydro-2H-benzo[e][1,4]diazepin-2-one], the AC1.4 was 0.23 µM.

Take `CC[C@H](C)[C@H]1C(=O)Nc2ccc(F)cc2CN1/C(N)=N\C#N` [Compound 71, (S,Z)-3-((S)-sec-butyl)-N′-cyano-7-fluoro-2-oxo-1,2,3,5-tetrahydro-4H-benzo[e][1,4]diazepine-4-carboximidamide]: the AC1.4 amounted to 0.15 µM. On to `CC[C@H](C)[C@H]1C(=O)Nc2ccc(F)cc2CN1C(=O)N1CC(O)C1` [Compound 72, (S)-3-((S)-sec-butyl)-7-fluoro-4-(3-hydroxyazetidine-1-carbonyl)-1,3,4,5-tetrahydro-2H-benzo[e][1,4]diazepin-2-one], for which the AC1.4 turned out to be 0.41 µM.
